From US20080280883A1, “Muscarinic Receptor Antagonists” (priority 2004, published 2008)

Test system: bladder pressure and salivation
Assay: In vivo experiments using anesthetized rabbit (carbachol challenge)
Conditions: carbachol 1.5 ug/kg intra-arterial, from ID50 values, expressed as fold of selectivity of oxybutynin

Row | Structure (SMILES) | Selectivity for bladder pressure inhibition vs. salivation
1 | CN1CCC(N(C)CC(O)C(O)(c2ccccc2)C2CCCC2)CC1 (centres unmarked) [Compound No. 24, 1-Cyclopentyl-3-[methyl-(1-methyl-piperidin-4-yl)-amino]-1-phenyl-propane-1,2-diol] | about 2
2 | CC1=NCCN1CC(=O)[C@](O)(c1ccccc1)C1CCCC1 [Compound No. 85, (2R)-1-Cyclopentyl-1-hydroxy-3-(2-methyl-4,5-dihydro-imidazol-1-yl)-1-phenyl-propan-2-one] | about 2
